Measured values as given in BindingDB's records for doi:10.1021/acs.biochem.5b00106 (Louis Stokes Cleveland Veterans Affairs Medical Center, 2015).
pKi: −log10 of the molar value.

What follows are molecules tested against VIM-24 (Klebsiella pneumoniae, UniProt E0AFT6) (assay: Direct Competition Assay).
Method: (§1) The Ki for each inhibitor was determined by direct competition assays under steady-state conditions. The initial velocity was measured in the presence of a constant concentration of enzyme (3 nM for VIM-2 and 4 nM for VIM-24) with increasing concentrations of inhibitor (5−60 μM) against a fixed concentration (5KM) of the indicator substrate, NCF, as previously described. The reactionswere started by addition of VIM-2 or VIM-24 to substrate or to mixtures of substrate and inhibitor.
`O=C(O)[C@H]1CS[C@@H]2CS[C@@H](CS)N12` [D-CS319] gave a pKi of 4.96.
With `CC1(C)S[C@@H]2CS[C@@H](CS)N2[C@H]1C(=O)O` [D-VC26] the pKi was 4.92.
For `O=C(O)[C@@H]1CS[C@H]2CS[C@H](CS)N21` [L-CS319], the pKi was 5.22.
Molecule `CC1(C)S[C@H]2CS[C@H](CS)N2[C@@H]1C(=O)O` [L-VC26] has a pKi of 5.31.

What follows are molecules tested against Metallo-beta-lactamase VIM-2 (Klebsiella pneumoniae, UniProt Q3Y6Q3) (assay: Direct Competition Assay).
Method: as §1
`O=C(O)[C@H]1CS[C@@H]2CS[C@@H](CS)N12` [D-CS319] gave a pKi of 5.27.
`CC1(C)S[C@@H]2CS[C@@H](CS)N2[C@H]1C(=O)O` [D-VC26] showed a pKi of 4.85.
`O=C(O)[C@@H]1CS[C@H]2CS[C@H](CS)N21` [L-CS319] showed a pKi of 5.43.
Work on `CC1(C)S[C@H]2CS[C@H](CS)N2[C@@H]1C(=O)O` [L-VC26] yielded a pKi of 5.42.
